Each molecule was assayed against EGFR (human) (UniProt P00533). Conditions: a431.
Chain of EGFR (human) (P00533 whole entry, looked up): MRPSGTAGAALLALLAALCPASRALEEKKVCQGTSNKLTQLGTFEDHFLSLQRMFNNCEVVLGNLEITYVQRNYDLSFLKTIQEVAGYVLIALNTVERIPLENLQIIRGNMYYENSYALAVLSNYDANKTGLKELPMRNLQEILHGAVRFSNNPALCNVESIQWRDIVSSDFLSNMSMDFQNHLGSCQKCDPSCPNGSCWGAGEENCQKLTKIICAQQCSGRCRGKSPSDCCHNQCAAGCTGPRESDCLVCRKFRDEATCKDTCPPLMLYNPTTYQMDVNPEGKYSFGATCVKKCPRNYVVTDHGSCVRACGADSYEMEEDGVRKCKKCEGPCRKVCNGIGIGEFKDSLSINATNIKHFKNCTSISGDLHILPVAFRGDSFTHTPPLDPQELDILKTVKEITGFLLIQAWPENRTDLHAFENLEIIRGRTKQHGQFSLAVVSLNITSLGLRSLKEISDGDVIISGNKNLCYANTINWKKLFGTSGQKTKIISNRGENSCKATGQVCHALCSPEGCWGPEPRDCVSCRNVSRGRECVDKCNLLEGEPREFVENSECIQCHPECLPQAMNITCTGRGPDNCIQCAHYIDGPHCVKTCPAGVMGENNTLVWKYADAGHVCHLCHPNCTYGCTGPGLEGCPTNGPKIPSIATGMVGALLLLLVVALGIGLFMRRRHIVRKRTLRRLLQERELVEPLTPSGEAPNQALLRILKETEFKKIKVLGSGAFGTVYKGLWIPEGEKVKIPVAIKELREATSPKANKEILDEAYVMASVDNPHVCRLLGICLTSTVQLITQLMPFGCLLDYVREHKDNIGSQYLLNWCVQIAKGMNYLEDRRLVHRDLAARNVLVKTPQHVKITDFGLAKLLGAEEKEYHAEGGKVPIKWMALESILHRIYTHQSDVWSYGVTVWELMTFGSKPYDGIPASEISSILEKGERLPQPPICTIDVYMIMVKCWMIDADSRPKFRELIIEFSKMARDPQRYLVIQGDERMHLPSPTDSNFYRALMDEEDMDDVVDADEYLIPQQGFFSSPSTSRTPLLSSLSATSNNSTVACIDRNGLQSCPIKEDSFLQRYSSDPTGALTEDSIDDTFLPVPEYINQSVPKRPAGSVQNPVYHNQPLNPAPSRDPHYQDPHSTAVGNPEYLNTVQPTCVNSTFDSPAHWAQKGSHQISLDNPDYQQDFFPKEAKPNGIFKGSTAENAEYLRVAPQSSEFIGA

IC50 | SMILES
> 10 µM | Cc1cccc(Nc2ncnc3c2ccc2ccccc23)c1
> 10 µM | CS(=O)(=O)Nc1cccc(Nc2ncnc3cc4c(cc23)OCO4)c1
> 10 µM | Cn1c(=O)n(C)c2cc3c(Nc4cccc(Br)c4)ncnc3cc21
> 10 µM | Brc1cccc(Nc2ncnc3c2ccc2ccccc23)c1
> 10 µM | Cc1cccc(Nc2ncnc3cc4c(cc23)n(C)c(=O)n4C)c1
> 10 µM | FC(F)(F)c1cccc(Nc2ncnc3c2ccc2ccccc23)c1

The next lines start with the molecule.

SMILES | IC50
Cc1cccc(Nc2ncnc3cc4c(cc23)OCCO4)n1 | > 10 µM
Cc1cccc(Nc2ncnc3cc4c(cc23)OCO4)n1 | > 10 µM
Cc1ccnc(Nc2ncnc3cc4c(cc23)OCO4)c1 | > 10 µM
Cn1c(=O)n(C)c2cc3c(Nc4cccc(C(F)(F)F)c4)ncnc3cc21 | > 10 µM
CS(=O)(=O)Nc1cccc(Nc2ncnc3cc4c(cc23)OCCO4)c1 | > 10 µM

Source: the Kinase Knowledgebase extract (Sharma et al. 2016)
